Data: ChEMBL document CHEMBL1150185, “Antineoplastic agents, 195. Isolation and structure of aceratioside from Aceratium megalospermum” (1990)
In brackets after ≈: the same amount, converted by molar mass.

Test system: P388
Experiment: Cytostatic activity against mouse P388 cells
Format: functional
Settings: read-out: ED50 (the source's name)

EC50: 9 µg/mL (≈ 24.3 µM)
SMILES: O=C(O)[C@H]1CCc2c(cc(O)cc2O[C@@H]2O[C@H](CO)[C@@H](O)[C@H](O)[C@H]2O)C1 [ACERATIOSIDE]
